From ChEMBL document CHEMBL4004803, “Syntheses and antibacterial activity of soluble 9-bromo substituted indolizinoquinoline-5,12-dione derivatives” (Eur J Med Chem, 2017) come the findings set out here.

Values after ≈ are worked out from the molar mass of the structure shown.

Holding throughout (format): functional
The test system of test [1] is Staphylococcus aureus. Description: Antibacterial activity against methicillin-resistant Staphylococcus aureus 518036 clinical isolate after 20 to 24 hrs by two-fold microdilution method.
Test [2] relates to Staphylococcus aureus. Description: Potency index, ratio of vancomycin MIC to test compound MIC for […] Staphylococcus aureus ATCC 25923.
In test [3] the test system is Staphylococcus aureus. Description: Antibacterial activity against methicillin-resistant Staphylococcus aureus 530231 clinical isolate after 20 to 24 hrs by two-fold microdilution method.
The test system of test [4] is Staphylococcus aureus. The test can be described thus: Antibacterial activity against methicillin-resistant Staphylococcus aureus 503025 clinical isolate after 20 to 24 hrs by two-fold microdilution method.
Test [5] has as its system Staphylococcus aureus. The test can be described thus: Antibacterial activity against methicillin-resistant Staphylococcus aureus 1026021 clinical isolate after 20 to 24 hrs by two-fold microdilution method.
Test [6] deals with Staphylococcus haemolyticus. The test can be described thus: Antibacterial activity against Staphylococcus haemolyticus CICC 10373 after 20 to 24 hrs by two-fold microdilution method.
Test [7] deals with Staphylococcus aureus. The test can be described thus: Antibacterial activity against methicillin-resistant Staphylococcus aureus 814039 clinical isolate after 20 to 24 hrs by two-fold microdilution method.
For the next test, the system named is Enterococcus faecalis. The test can be described thus: Antibacterial activity against Enterococcus faecalis ATCC 29212 after 20 to 24 hrs by two-fold microdilution method.
Test [8] relates to Staphylococcus aureus. The test can be described thus: Antibacterial activity against methicillin-resistant Staphylococcus aureus 216054 clinical isolate after 20 to 24 hrs by two-fold microdilution method.
Test [9] has as its system Staphylococcus aureus. The test can be described thus: Antibacterial activity against methicillin-resistant Staphylococcus aureus 1107027 clinical isolate after 20 to 24 hrs by two-fold microdilution method.
The subject of test [10] is Staphylococcus aureus. The test can be described thus: Antibacterial activity against methicillin-resistant Staphylococcus aureus 30116-1 clinical isolate after 20 to 24 hrs by two-fold microdilution method.
Test [11] relates to Staphylococcus aureus. Description: Antibacterial activity against […] Staphylococcus aureus ATCC 25923 after 20 to 24 hrs by two-fold microdilution method.
For test [12], the system named is Staphylococcus aureus. Description: Antibacterial activity against methicillin-resistant Staphylococcus aureus 10844 clinical isolate after 20 to 24 hrs by two-fold microdilution method.
The subject of test [13] is Staphylococcus aureus. Description: Antibacterial activity against methicillin-resistant Staphylococcus aureus 921026 clinical isolate after 20 to 24 hrs by two-fold microdilution method.
Test [14] deals with Staphylococcus aureus. The test can be described thus: Antibacterial activity against methicillin-resistant Staphylococcus aureus 1012039 clinical isolate after 20 to 24 hrs by two-fold microdilution method.
Test [15] deals with Staphylococcus aureus. The test can be described thus: Antibacterial activity against methicillin-resistant Staphylococcus aureus 304243 clinical isolate after 20 to 24 hrs by two-fold microdilution method.
The subject of test [16] is Staphylococcus aureus. The test can be described thus: Antibacterial activity against methicillin-resistant Staphylococcus aureus 103054 clinical isolate after 20 to 24 hrs by two-fold microdilution method.
The subject of test [17] is Staphylococcus aureus. Description: Potency index, ratio of vancomycin MIC90 to test compound MIC90 for methicillin-resistant Staphylococcus aureus.
Test [18] deals with Staphylococcus aureus. Description: Potency index, ratio of vancomycin MIC50 to test compound MIC50 for methicillin-resistant Staphylococcus aureus.

Turning to `CN(C)CCCCCOC(=O)c1c2c(n3cc(Br)ccc13)C(=O)c1ncccc1C2=O`, the MIC in the test on Staphylococcus aureus [1] came to 0.25 µg/mL (≈ 0.516 µM); with Staphylococcus aureus [3], 0.25 µg/mL (≈ 0.516 µM); in the test on Staphylococcus aureus [4], 0.5 µg/mL (≈ 1.03 µM); in the test with Staphylococcus aureus [5] it was 16 µg/mL (≈ 33 µM); in test [6], 0.25 µg/mL (≈ 0.516 µM); with Staphylococcus aureus [7], 0.5 µg/mL (≈ 1.03 µM). The MIC with Enterococcus faecalis is 0.125 µg/mL (≈ 0.258 µM); with Staphylococcus aureus [8], 0.25 µg/mL (≈ 0.516 µM); with Staphylococcus aureus [9] it was 0.5 µg/mL (≈ 1.03 µM); against Staphylococcus aureus [10], 0.5 µg/mL (≈ 1.03 µM); with Staphylococcus aureus [11], not above 0.0078 µg/mL; in the test on Staphylococcus aureus [12], 0.25 µg/mL (≈ 0.516 µM). For the same molecule, the MIC in the test on Staphylococcus aureus [13] amounted to 0.25 µg/mL (≈ 0.516 µM); in the test on Staphylococcus aureus [14], 0.125 µg/mL (≈ 0.258 µM); with Staphylococcus aureus [15] it was 0.25 µg/mL (≈ 0.516 µM); against Staphylococcus aureus [16], 0.5 µg/mL (≈ 1.03 µM). The Ratio in the test on Staphylococcus aureus [2] is reported as 256.
With `O=C1c2cccnc2C(=O)c2c1c(C(=O)OCCCCCN1CCOCC1)c1ccc(Br)cn21`, the MIC stood at 0.063 µg/mL (≈ 0.12 µM) against Staphylococcus aureus [1]; 0.031 µg/mL (≈ 0.0589 µM) with Staphylococcus aureus [3]; 0.031 µg/mL (≈ 0.0589 µM) in the test on Staphylococcus aureus [4]; 16 µg/mL (≈ 30.4 µM) with Staphylococcus aureus [5]; 1 µg/mL (≈ 1.9 µM) in test [6]; 0.125 µg/mL (≈ 0.237 µM) in the test with Staphylococcus aureus [7]. Also, the MIC is 0.25 µg/mL (≈ 0.475 µM) in the test with Enterococcus faecalis; 0.063 µg/mL (≈ 0.12 µM) in the test on Staphylococcus aureus [8]; not above 0.0078 µg/mL against Staphylococcus aureus [9]; not above 0.0078 µg/mL against Staphylococcus aureus [10]; 0.016 µg/mL (≈ 0.0304 µM) in the test with Staphylococcus aureus [11]; not above 0.0078 µg/mL in the test with Staphylococcus aureus [12]. Also, the MIC in the test with Staphylococcus aureus [13] is not above 0.0078 µg/mL; with Staphylococcus aureus [14], 0.125 µg/mL (≈ 0.237 µM); in the test on Staphylococcus aureus [15] it was 0.031 µg/mL (≈ 0.0589 µM); with Staphylococcus aureus [16], not above 0.0078 µg/mL.
Take `O=C1c2cccnc2C(=O)c2c1c(C(=O)OCCCCCCN1CCOCC1)c1ccc(Br)cn21`: the MIC was not above 0.0078 µg/mL against Staphylococcus aureus [1]; not above 0.0078 µg/mL in the test on Staphylococcus aureus [3]; not above 0.0078 µg/mL in the test with Staphylococcus aureus [4]; not above 0.0078 µg/mL against Staphylococcus aureus [5]; 0.031 µg/mL (≈ 0.0574 µM) in test [6]; not above 0.0078 µg/mL with Staphylococcus aureus [7]. Moreover, the MIC with Enterococcus faecalis is 0.063 µg/mL (≈ 0.117 µM); in the test on Staphylococcus aureus [8] it was not above 0.0078 µg/mL; against Staphylococcus aureus [9], not above 0.0078 µg/mL; in the test with Staphylococcus aureus [10] it was not above 0.0078 µg/mL; in the test with Staphylococcus aureus [11], not above 0.0078 µg/mL; in the test with Staphylococcus aureus [12] it was not above 0.0078 µg/mL. Further, the MIC was not above 0.0078 µg/mL against Staphylococcus aureus [13], not above 0.0078 µg/mL against Staphylococcus aureus [14], 0.031 µg/mL (≈ 0.0574 µM) with Staphylococcus aureus [15] and not above 0.0078 µg/mL with Staphylococcus aureus [16]. Further, the Ratio in the test on Staphylococcus aureus [2] is listed as 256.
With `O=C1c2cccnc2C(=O)c2c1c(C(=O)OCCCCN1CCOCC1)c1ccc(Br)cn21`, the MIC was found to be 0.5 µg/mL (≈ 0.976 µM) with Staphylococcus aureus [1]; 0.5 µg/mL (≈ 0.976 µM) with Staphylococcus aureus [3]; 1 µg/mL (≈ 1.95 µM) in the test on Staphylococcus aureus [4]; 16 µg/mL (≈ 31.2 µM) in the test on Staphylococcus aureus [5]; 0.125 µg/mL (≈ 0.244 µM) in [6]; 0.25 µg/mL (≈ 0.488 µM) against Staphylococcus aureus [7]. Besides, the MIC against Enterococcus faecalis worked out at 0.25 µg/mL (≈ 0.488 µM); with Staphylococcus aureus [8], 0.063 µg/mL (≈ 0.123 µM); in the test with Staphylococcus aureus [9] it was 0.25 µg/mL (≈ 0.488 µM); against Staphylococcus aureus [10], 0.5 µg/mL (≈ 0.976 µM); in the test with Staphylococcus aureus [11] it was 0.063 µg/mL (≈ 0.123 µM); in the test on Staphylococcus aureus [12] it was 0.5 µg/mL (≈ 0.976 µM). Also, the MIC with Staphylococcus aureus [13] came out at 0.5 µg/mL (≈ 0.976 µM); against Staphylococcus aureus [14], 0.5 µg/mL (≈ 0.976 µM); against Staphylococcus aureus [15] it was 0.125 µg/mL (≈ 0.244 µM); with Staphylococcus aureus [16], 0.5 µg/mL (≈ 0.976 µM).
With `CN1CCN(CCCCCCOC(=O)c2c3c(n4cc(Br)ccc24)C(=O)c2ncccc2C3=O)CC1`, the MIC with Staphylococcus aureus [1] amounted to 0.125 µg/mL (≈ 0.226 µM); against Staphylococcus aureus [3] it was 0.5 µg/mL (≈ 0.903 µM); against Staphylococcus aureus [4] it was 0.25 µg/mL (≈ 0.452 µM); against Staphylococcus aureus [5] it was 16 µg/mL (≈ 28.9 µM); in test [6], 0.063 µg/mL (≈ 0.114 µM); in the test on Staphylococcus aureus [7], 0.5 µg/mL (≈ 0.903 µM). The MIC against Enterococcus faecalis was 0.25 µg/mL (≈ 0.452 µM); with Staphylococcus aureus [8] it was 0.125 µg/mL (≈ 0.226 µM); in the test with Staphylococcus aureus [9], 0.25 µg/mL (≈ 0.452 µM); against Staphylococcus aureus [10] it was 0.125 µg/mL (≈ 0.226 µM); in the test with Staphylococcus aureus [11] it was not above 0.0078 µg/mL; with Staphylococcus aureus [12], not above 0.0078 µg/mL. In addition, the MIC was not above 0.0078 µg/mL with Staphylococcus aureus [13], 0.125 µg/mL (≈ 0.226 µM) in the test on Staphylococcus aureus [14], 0.25 µg/mL (≈ 0.452 µM) in the test on Staphylococcus aureus [15] and 0.031 µg/mL (≈ 0.056 µM) with Staphylococcus aureus [16]. In addition, in the test with Staphylococcus aureus [2], the Ratio came to 256.
On to `O=C1c2cccnc2C(=O)c2c1c(C(=O)OCCCCCCN1CCCCC1)c1ccc(Br)cn21`, for which the MIC was 0.125 µg/mL (≈ 0.232 µM) against Staphylococcus aureus [1]; 0.125 µg/mL (≈ 0.232 µM) in the test on Staphylococcus aureus [3]; 0.125 µg/mL (≈ 0.232 µM) against Staphylococcus aureus [4]; 16 µg/mL (≈ 29.7 µM) in the test with Staphylococcus aureus [5]; 0.125 µg/mL (≈ 0.232 µM) in [6]; 0.25 µg/mL (≈ 0.464 µM) with Staphylococcus aureus [7]. Also, the MIC is 0.125 µg/mL (≈ 0.232 µM) in the test on Enterococcus faecalis; not above 0.0078 µg/mL in the test with Staphylococcus aureus [8]; 0.063 µg/mL (≈ 0.117 µM) in the test on Staphylococcus aureus [9]; 0.063 µg/mL (≈ 0.117 µM) in the test with Staphylococcus aureus [10]; 0.031 µg/mL (≈ 0.0576 µM) in the test on Staphylococcus aureus [11]; 0.063 µg/mL (≈ 0.117 µM) with Staphylococcus aureus [12]. Further, the minimum inhibitory concentration (MIC) turned out to be 0.063 µg/mL (≈ 0.117 µM) in the test with Staphylococcus aureus [13], 0.063 µg/mL (≈ 0.117 µM) in the test on Staphylococcus aureus [14], 0.016 µg/mL (≈ 0.0297 µM) in the test on Staphylococcus aureus [15] and 0.031 µg/mL (≈ 0.0576 µM) against Staphylococcus aureus [16]. Further, the Ratio in the test on Staphylococcus aureus [17] and in the test on Staphylococcus aureus [18] was 16 in each case.
